One test relates to P. aeruginosa PAO1. The test can be described thus: Time kill study (viability count). It is filed as cell-based. The following applies: for Bacterial count: Compound of Formula (III) 4 μg/ml, alone or combined; for Bactericidal action (in words): P. aeruginosa PAO1, standalone or combination, Tables 6 and 7. As for the experimental part: (§1) The antibacterial effectiveness of various antibacterial agents in presence of a compound of Formula (III) was investigated and the results are detailed below. In a typical study, overnight cultures in Trypticase soya broth (TSB) were brought to log phase by 1 in 10 dilution in fresh cation adjusted Mueller Hinton Broth (MHB) and incubation for 2.5 hours at 35° C. in orbital shaker. Log phase cultures were diluted to desired inoculums in flasks with MHB, containing various drug concentrations. Flasks were incubated at 35° C. in orbital shaker with rotational speed of 125 rpm. Viability count was determined by 1 in 10 serial dilutions of samples in normal saline and surface spreading of 10 μl of dilutions in duplicate on Trypticase soya agar plates. Plates were incubated for 24 hours at 35° C. and colonies were enumerated to determine the colony forming units (CFU) per ml volume.

A further test relates to E. coli ATCC 25922. The test can be described thus: Time kill study (viability count). It is filed as cell-based. The settings on record: for Bacterial count: Compound of Formula (III) 2 μg/ml, alone or combined; for Bactericidal action (in words): E. coli ATCC 25922, standalone or combination, Tables 3 to 5. As for the experimental part:
as §1

For `C[C@H]1[C@H](NC(=O)/C(=N\OC(C)(C)C(=O)O)c2csc(N)n2)C(=O)N1S(=O)(=O)O` [Aztreonam], the Bacterial count is 5.74 log (CFU/ml) with P. aeruginosa PAO1 (0 hour, Aztreonam 2 μg/ml); 6.3 log (CFU/ml) in the test with P. aeruginosa PAO1 (2 hours, Aztreonam 2 μg/ml); 6.65 log (CFU/ml) in the test on P. aeruginosa PAO1 (4 hours, Aztreonam 2 μg/ml); 6.54 log (CFU/ml) in the test on P. aeruginosa PAO1 (6 hours, Aztreonam 2 μg/ml); 7.15 log (CFU/ml) with P. aeruginosa PAO1 (24 hours, Aztreonam 2 μg/ml); 7.47 log (CFU/ml) with E. coli ATCC 25922 (0 hour, Aztreonam 1 μg/ml). Further, the Bacterial count is on record as 7.48 log (CFU/ml) with E. coli ATCC 25922 (2 hours, Aztreonam 1 μg/ml); 7.47 log (CFU/ml) in the test with E. coli ATCC 25922 (4 hours, Aztreonam 1 μg/ml); 7.48 log (CFU/ml) with E. coli ATCC 25922 (6 hours, Aztreonam 1 μg/ml); 7.5 log (CFU/ml) with E. coli ATCC 25922 (24 hours, Aztreonam 1 μg/ml). For the same compound, the “Bactericidal action (in words)” value with P. aeruginosa PAO1 and in the test with E. coli ATCC 25922 was “did not exhibit any bactericidal action” in each case.
`CO[C@@]1(NC(=O)Cc2cccs2)C(=O)N2C(C(=O)O)=C(COC(N)=O)CS[C@@H]21` [Cefoxitin]: the Bacterial count in the test with E. coli ATCC 25922 (0 hour, Cefoxitin 1 μg/ml) was 7.47 log (CFU/ml); in the test with E. coli ATCC 25922 (2 hours, Cefoxitin 1 μg/ml), 7.11 log (CFU/ml); with E. coli ATCC 25922 (4 hours, Cefoxitin 1 μg/ml) it was 6.7 log (CFU/ml); in the test with E. coli ATCC 25922 (6 hours, Cefoxitin 1 μg/ml), 6.54 log (CFU/ml); in the test with E. coli ATCC 25922 (24 hours, Cefoxitin 1 μg/ml), 9 log (CFU/ml). In addition, the “Bactericidal action (in words)” value in the test with E. coli ATCC 25922 was “did not exhibit any significant bactericidal action”.
As to `NC(=O)c1cc[n+](CC2=C(C(=O)O)N3C(=O)[C@@H](NC(=O)[C@@H](c4ccccc4)S(=O)(=O)[O-])[C@H]3SC2)cc1` [Cefsulodin], the Bacterial count with P. aeruginosa PAO1 (0 hour, Cefsulodin 2 μg/ml) is given as 6.81 log (CFU/ml); in the test on P. aeruginosa PAO1 (2 hours, Cefsulodin 2 μg/ml) it was 6.48 log (CFU/ml); with P. aeruginosa PAO1 (4 hours, Cefsulodin 2 μg/ml), 5.07 log (CFU/ml); with P. aeruginosa PAO1 (6 hours, Cefsulodin 2 μg/ml), 4.74 log (CFU/ml); in the test on P. aeruginosa PAO1 (24 hours, Cefsulodin 2 μg/ml), 9 log (CFU/ml); in the test on E. coli ATCC 25922 (0 hour, Cefsulodin 16 μg/ml), 7.47 log (CFU/ml). Further, the Bacterial count in the test with E. coli ATCC 25922 (2 hours, Cefsulodin 16 μg/ml) was 8.4 log (CFU/ml); in the test with E. coli ATCC 25922 (4 hours, Cefsulodin 16 μg/ml) it was 8.8 log (CFU/ml); in the test with E. coli ATCC 25922 (6 hours, Cefsulodin 16 μg/ml) it was 8.3 log (CFU/ml); in the test on E. coli ATCC 25922 (24 hours, Cefsulodin 16 μg/ml) it was 9 log (CFU/ml). The “Bactericidal action (in words)” value in the test with P. aeruginosa PAO1 is “failed to cause consistent killing till 24 hour”; in the test on E. coli ATCC 25922 it was “did not exhibit any bactericidal action”.

The record behind these values is patent US20170172994A1, “COMPOSITIONS AND METHODS FOR TREATING BACTERIAL INFECTIONS” (WOCKHARDT LIMITED, priority 2013, published 2017).
